{"source": "patent US7374890B2", "about": "“Methods for identifying compounds that modulate ΔTRα2 activity” (University of Massachusetts, priority 2000, dated 2008)", "key": {"T4 deiodinases": {"system": "T4 deiodinases", "details": "cited from earlier work"}, "transthretin": {"target": "transthretin (Homo sapiens, UniProt P02766)", "details": "cited from earlier work"}, "D2 activity": {"system": "D2 activity", "details": "in astrocytes; cited from earlier work"}, "deiodination": {"system": "deiodination", "details": "cited from earlier work"}, "[1]": {"system": "Ca-dependent Mg-ATPase release of p29 vesicles from F-actin", "experiment": "release of F-actin-bound p29 vesicles by Ca-dependent Mg-ATPase", "assay_type": "biochemical, rat", "details": "5 mM EGTA", "from_the_text": "To determine whether this is a direct interaction between the vesicle and F-actin or is mediated by other actin-bound proteins, e.g., myosin V, the release of p29 vesicle bound to F-actin by activating a Ca-dependent Mg-ATPase was investigated. Synaptic vesicle-bound myosin V is released from F-actin by activating the Ca-dependent MgATPase found in the actin binding head of myosin V (Prekeris et al, 1997, J. Cell Biol. 137: 1589-1601; Nascimento et al., 1996, J. Biol. Chem. 271:17561-17569). In this experiment, confluent monolayers of astrocytes were grown in serum-free media for 16 hours, then D2 activity was induced with bt2cAMP and hydrocortisone, and the p29 vesicle was affinity radiolabeled with BrAc[^125I]T4. Cell lysates containing approximately 50,000 cpm of BrAc[^125I]T4-labeled p29 were pretreated with 10 nM […] at 37° C., followed by an additional 20 minute incubation with 0.1 mM Ca^2+, 1 mM Mg^2+, 0.1 mM ATP, or 5 mM EGTA. Triton-insoluble (F-actin bound) pellets were prepared as described herein. […] Triton-insoluble (F-actin-bound) pellets were separated from the Triton-soluble (vesicle) fraction by microfuge centrifugation (14,000×g for five minutes) and the distribution of p29 was determined by y-counting, and by SDS-PAGE analysis."}, "[2]": {"system": "cerebellar granule neurons", "experiment": "release of FM1-43-loaded synaptic vesicles from cerebellar granule neurons under continuous stimulus", "assay_type": "cell-based, rat", "details": "10 nM hormone; continuous stimulation by 50 mM KCl; vs no hormone controls; first order kinetics assumed", "procedure": "Granule neurons were grown for 7 days and rendered hormone free by growth in serum-free medium as detailed above. Coverslips were then placed in a perfusion chamber, mounted on the stage of a laser scanning confocal microscope and perfused at 1 ml/min at 25° C. with perfusion buffer (119 mM NaCl, 2.5 mM KCl, 2 mM CaCl2, 2 mM MgCl2, 25 mM HEPES (pH 7.4), 30 mM glucose, and […] AP-5). The effects of different hormones on synaptic vesicle trafficking were then determined. […] Depolarizing KCl was then removed from the perfusion buffer and the cells were exposed to FM1-43 for an additional 30 seconds to insure complete loading of recycling synaptic vesicles. Loaded cells were then washed free of dye and the cells were perfused for ten minutes at rest.\nImages of a single field of neuronal fibers were then taken immediately before adding a second depolarizing solution (perfusion buffer containing 50 mM KCl) and at one and two minutes after beginning the continuous stimulation by 50 mM KCl. Thirty to forty-five individual FM1-43 labeled nerve terminals were identified in the baseline images (taken prior to depolarization) and the change in fluorescence (DF) for each nerve terminal determined at the one and two minute time points. FIGS. 11A and 11B show the results of analysis of the hormone specificity of synaptic vesicle trafficking (FIG. 11A) and the influence of individual myo5a mutants (FIG. 11B) on synaptic vesicle transport in granule neurons.\nTo evaluate the role of myo5a in synaptic vesicle transport, three different myo5a constructs were introduced into the neurons by replication-deficient adenoviral vectors (Δmyo5a^tail(MyoV^tail), Δmyo5a^c-term(MyoV^1830)and ΔMyo5a^CC(MyoV^cc) see FIG. 5) as described above. […] Neurons were infected with purified Ad5-constructs (MOI=10) 48 hours prior to the synaptic vesicle trafficking study, and allowed to recover in hormone (T4) supplemented medium. […] This modest influence of the VBD mutant on synaptic vesicle retention is likely to be due to the loss of the kinesin-binding domain that limits its delivery to nerve terminals."}, "[3]": {"target": "binding of p29^GFP vesicles to F-actin", "experiment": "modified in vitro actin binding assay with p29^GFP-labeled vesicles", "assay_type": "biochemical, rat", "details": "0-100 nM, 20 minutes at 37° C.; read-out: EC50, increase in quantity of p29^GFP bound to F-actin", "procedure": "To define the specific region(s) of the myosin V tail that interact with the p29 vesicle, a series of deletion mutations were created based on the dominant negative effect of exogenous myosin V tail on p29 vesicle binding. Competition analysis of the myosin V deletion mutations on T4-dependent binding of p29 vesicles to F-actin was performed using a modified in vitro assay in which a GFP-tagged p29 fusion protein (p29^GFP) replaced the radioaffinity labeled native p29 (Farwell et al., 1990, J. Biol. Chem. 265:18546-18553; Farwell et al., 1993, J. Biol. Chem. 268:5055-5062). This allowed direct evaluation of the binding of fluorescent vesicles to F-actin without affinity radiolabeling of the p29 and subsequent SDS-PAGE analysis.\nSpecific fluorescence at 510 nm (excitation, 488 nm) was then determined in the resuspended Triton-insoluble pellets.\nTo determine if the myosin V tail could be captured by the p29^GFP vesicle, an exogenous myosin V^tail was introduced into astrocytes constitutively expressing p29^GFP by infection with Ad5-ΔMyo V^tail virus particles and examined the effects of T4 on the binding of the myosin V^tail to immunopurified p29^GFP vesicles. Astrocytes expressing p29^GFP were grown in serum-free media and treated for 16 hours with 1 mM bt2cAMP and 100 nM hydrocortisone. A separate pool of astrocytes was treated in serum-free media supplemented with 10 μM retinoic acid. Cells were collected by scraping, and lysed by two freeze-thaw cycles. […] Triton-soluble (vesicle) and Triton-insoluble (F-actin) fractions were separated by microflige centrifugation. Triton pellets were resuspended in 300 μl of PBS and fluorescence at 510 nm (excitation 488 nm) determined and relative fluorescence was reported as arbitrary units. Cells were treated with 10 nM T4 for twenty minutes and a Triton-soluble supernatant was prepared. Vesicles containing the p29^GFP were immunoprecipitated by anti-GFP IgG (2 μg/ml) and protein in the immunoprecipitates were resolved by SDS-PAGE. Immunoblot analysis of vesicle-associated myosin V was performed using the anti-myosin V antibody directed against the C-terminus.\nThe quantity of each mutant protein synthesized was determined by [^35 S]-methionine incorporation. Astrocytes expressing p29^GFP were grown in serum-free media and treated for 16 hours with […] bt2cAMP and 100 nM hydrocortisone. p29^GFP V-lysate and F-lysate were prepared as described herein. 100 μg aliquots of p29^GFP V-lysate and F-lysate were pre-incubated, in triplicate, for 20 minutes at 37° C. in the presence of individual Δ myosin V mutant proteins (˜2-3 pmol polypeptide/50 μl mixture) were added to the actin-binding assay and pre-incubated for 20 minutes at 37° C. T4 (10 nM) was then added, the mixtures incubated for 20 minutes at 37° C., and F-actin bound, fluorescent p29^GFP vesicles were then isolated in the Triton-insoluble pellet.\nV lysates prepared from astrocytes over-expressing p29^GFP were pre-incubated for 30 minutes at room temperature with antisera raised against ΔTRα2, ΔTRα1, the C-terminus of MyoV (encoded by MyoV^tail, FIG. 5), the coiled-coil region of MyoV (encoded by MyoV^coil-coil, FIG. 5) and GFP (green fluorescent protein). T4 (10 nM) and actin fiber-containing F-lysate was then added, the mixtures incubated at 37° C. for 20 minutes, and the Triton-insoluble fraction isolated by centrifugation."}, "[4]": {"target": "T1, ΔTRα2 (T4 Inactivating Protein; TIP) (Rattus norvegicus, UniProt P63059)", "T1 construct": "ΔTRα2 is encoded by exons 8-10 resulting in an approximately 25 kd protein", "T1 sequence (P63059 whole entry, stated change not applied)": "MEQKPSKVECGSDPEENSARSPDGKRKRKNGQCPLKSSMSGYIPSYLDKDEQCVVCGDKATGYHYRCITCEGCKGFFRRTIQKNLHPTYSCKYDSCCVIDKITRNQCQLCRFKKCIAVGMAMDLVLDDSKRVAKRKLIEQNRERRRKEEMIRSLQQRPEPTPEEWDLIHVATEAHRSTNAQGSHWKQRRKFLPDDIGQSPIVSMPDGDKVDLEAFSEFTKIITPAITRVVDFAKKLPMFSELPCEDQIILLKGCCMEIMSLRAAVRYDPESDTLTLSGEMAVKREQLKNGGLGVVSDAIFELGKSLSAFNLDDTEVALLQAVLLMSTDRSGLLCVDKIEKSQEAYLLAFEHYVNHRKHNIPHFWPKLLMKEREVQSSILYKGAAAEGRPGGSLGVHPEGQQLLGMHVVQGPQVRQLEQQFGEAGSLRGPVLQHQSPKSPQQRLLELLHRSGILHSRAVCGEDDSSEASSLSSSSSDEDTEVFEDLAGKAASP", "experiment": "rT3 binding displacement in nuclei-free extracts of cultured rat astrocytes", "procedure": "The properties of thyroid hormone binding to non-nuclear components of the cell were examined using ΔTRα2 (T4 Inactivating Protein; TIP)-containing, nuclei-free extracts of cultured rat astrocytes. […] Both rT3 and T4 specifically displace rT3 with Kd's of approximately 0.3-0.5 nM."}, "ΔTRα1": {"target": "ΔTRα1 (Rattus norvegicus, UniProt P63059)", "experiment": "[125I]rT3 displacement from cell-free translated ΔTRα1", "assay_type": "binding", "details": "cell-free translated polypeptide", "from_the_text": "(§1) ΔTRα1 and ΔTRα2 polypeptides were synthesized by cell-free translation of appropriate segments of the rat ΔTRα1 and ΔTRα2 cDNA using the coupled transcription-translation kit from Promega® (TNT) according to the manufacturer's instructions."}, "ΔTRα2": {"target": "T2, ΔTRα2 (Rattus norvegicus, UniProt P63059)", "T2 sequence (P63059 256-492)": "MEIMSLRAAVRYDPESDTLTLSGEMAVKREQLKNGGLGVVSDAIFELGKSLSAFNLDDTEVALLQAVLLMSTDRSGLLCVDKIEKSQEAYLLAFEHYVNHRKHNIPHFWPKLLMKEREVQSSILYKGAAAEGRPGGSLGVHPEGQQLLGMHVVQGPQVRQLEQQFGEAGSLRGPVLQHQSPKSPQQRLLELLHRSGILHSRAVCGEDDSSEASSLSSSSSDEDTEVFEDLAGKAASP", "experiment": "[125I]rT3 displacement from cell-free translated ΔTRα2", "assay_type": "binding", "details": "cell-free translated polypeptide", "from_the_text": "as §1"}, "astrocytes": {"system": "astrocytes", "experiment": "subcellular distribution of immunoreactive TRα2-derived proteins in cultured astrocytes", "assay_type": "cell-based, rat", "details": "serum-free medium, treated 20 minutes, 0.1% bovine serum albumin carrier", "from_the_text": "The subcellular distribution of immunoreactive thyroid hormone receptor-derived proteins in primary brain cell cultures and in cultured astrocytes was examined. Primary brain cell cultures were fixed with 0.4% paraformaldehyde, permeabilized with Triton X-100®, and stained for TRα-derived proteins using specific antisera directed against the unique C-termini of TRα1 and TRα2 proteins, and visualized by staining with a secondary tagged antibody. Consistent with previous observations (Kolodny et al., 1985, Endocrinol. 117: 1848-1857), immunoreactive TRα1 proteins were found in the nuclei of astrocytes and neuronal cells. However, TRα2-derived proteins were not localized to the nucleus in either astrocytes or neurons, but appeared as donut shaped structures located throughout the astrocyte or as discreet punctate signals along neuronal fibers. This latter pattern is diagnostic for synapses in neuronal cultures (Wong et al., 1999, Neurosci. 89:221-233), and is consistent with the presence of ΔTRα2-derived protein in nerve terminals.\nThe subcellular distribution of immunoreactive TRα2-derived proteins in cultured astrocytes was influenced by the presence of either T4 or rT3. In these experiments astrocytes were grown in serum-free medium, treated for 20 minutes with either […] or rT3, and fixed, permeabilized, and stained as described above. […]"}}, "data": [{"smiles": "Cc1c(-c2cc(Br)c(O)c(Br)c2)oc2ccc(O)cc2c1=O", "note": "[EMD21388]", "values": [{"measurement": "inhibition of T4 deiodinases", "setting": "T4 deiodinases", "result": "can inhibit"}, {"measurement": "block of the binding of T4 to transthretin", "setting": "transthretin", "result": "competitively block"}, {"measurement": "quantity of D2 activity", "setting": "D2 activity", "result": "decreases the quantity of D2 activity"}]}, {"smiles": "O=C(CCc1ccc(O)cc1)c1c(O)cc(O)cc1O", "note": "[phloretin]", "values": [{"measurement": "inhibition of deiodination", "setting": "deiodination", "result": "potent inhibitor"}]}, {"smiles": "O=C(O)CN(CCOCCOCCN(CC(=O)O)CC(=O)O)CC(=O)O", "note": "[EGTA]", "values": [{"measurement": "block of Ca2+-stimulated, Mg2ATPase-dependent release of p29 from F-actin", "setting": "[1]", "result": "more than 50%"}]}, {"smiles": "N[C@@H](Cc1ccc(Oc2cc(I)c(O)c(I)c2)c(I)c1)C(=O)O", "note": "[rT3, 3, 3′, 5′-triiodothyronine]", "values": [{"measurement": "decrease of the rate of FM1-43 release", "setting": "[2]", "result": 75, "unit": "%"}, {"measurement": "EC50", "setting": "[3]", "result": "~0.5", "unit": "nM"}, {"measurement": "Kd", "setting": "[4]", "result": "0.3 to 0.5", "unit": "nM"}, {"measurement": "Kd", "setting": "ΔTRα1", "result": "0.3 to 1", "unit": "nM"}, {"measurement": "Kd", "setting": "ΔTRα2", "result": "0.3 to 1", "unit": "nM"}, {"measurement": "subcellular distribution of TRα2-derived proteins", "setting": "astrocytes", "result": "coalescence of the TRα2-derived proteins around the perinuclear space"}]}]}
